According to US20190209451A1, “SOLUBILIZING AGENTS FOR UV FILTERS IN COSMETIC FORMULATIONS” (BASF SE, priority 2016, published 2019):

Test: Determination of the solubility of organic UV filters in levulynates used as solvents
Type: physicochemical
Conditions: UV filter dissolved in the named levulynate as solvent; stirred seven days at 25° C.; UV/Vis-spectrometry
Description: Afterwards 0.02 g (1%) of the respective substance are weighed and added to the solvent. The vial is placed into a thermostated waterbath, where the suspension/solution is stirred during seven days at 25° C. If the amount of substance put into the solvent is fully soluble, additional substance is added until precipitation can be observed. After seven days, the sample is centrifuged for 30 minutes at 13000 rpm. The supernatant is transferred into a small beaker. In case the sample is still turbid, it is filtered through a 0.2 μm non-steril Membrex 25 PET filter. Clear solutions must not be filtered. When a clear solution is obtained, the concentration of the substance is determined with UV/Vis-spectrometry. For this purpose the sample may be diluted with a suitable solvent or, in case of lower concentrations, may be measured as is. If the test solvent is water, further dilution is done with water. If the test solvent is volatile, the same solvent is taken for dilution. If the test solvent is a cosmetic emollient, dioxane is used for further dilution. In order to evaluate the concentration from the UV-spectroscopic results, the extinction coefficient is needed, which is determined independently with a solvent of similar polarity like that one used for dilution of the saturated solutions. The solubility can be calculated using the equation of the Lambert-Beer-Law: [formula] • c=concentration (mol/l) • E=extinction measured at λ max. • f=dilution factor • ε=extinction coefficient at λmax [I/(mol/cm)] • d=optical pathlength [cm] Due to spectra overlapping the solubility of some crystalline UV filters in liquid UV filters cannot be determined exactly by UV spectroscopy. In this case solubilities are determined via HPLC with reversed phase C-18 columns and UV-detectors.

| Solubility of Bis-Ethylhexyloxyphenol Methoxyphenyl Triazine | Solubility of Diethylamino Hydroxybenzoyl Hexyl Benzoate | Solubility of Ethylhexyl Triazone | SMILES |
| --- | --- | --- | --- |
| 10.4 w/% | 42.6 w/% | 25.1 w/% | CCCCCCCCOC(=O)CCC(C)=O [C8-levulynate, levulinic acid octyl ester] |
| 9.1 w/% | 31.0 w/% | 21.0 w/% | CCCCCCCCCCOC(=O)CCC(C)=O [C10-levulynate, levulinic acid decyl ester] |
| 3.0 w/% | 29.1 w/% | 11.7 w/% | CCCCCCCCCCCCOC(=O)CCC(C)=O [C12-Levulynate, levulinic acid dodecyl ester] |
| 6.5 w/% | 33.4 w/% |  | CCCCC(CC)COC(=O)CCC(C)=O (centres unmarked) [2-Ethylhexyl-levulynate] |
